Assay results from publication PMC12399242 (Acta Pharmaceutica Sinica. B, 2025).

What was measured:
HIV-1 (IIIB) = test: microbe, parasite or virus in culture; format: cell-based; details: for EC50: Human immunodeficiency virus 1, IIIB, MT4, WT HIV-1, protection of MT-4 cells against HIV-induced cytopathogenicity, mean ± SD, n ≥ 3; for SI (IIIB): selectivity index, ratio CC50/EC50
Excerpt: (§1) Inspired by our previous research on heteroaromatic-biphenyl-DAPYs[15], the 4-cyanophenyl group on the biphenyl moiety was replaced with a privileged 4-pyridyl group for further evaluation.

in vitro = details: human, CC50
Excerpt: as §1

N#Cc1ccc(Nc2ncc(F)c(Oc3ccc(-c4ccc(C#N)cc4)cc3Cl)n2)cc1 [A2, 3′-Chloro-4′-((2-((4-cyanophenyl)amino)-5-fluoropyrimidin-4-yl)oxy)-[1,1′-biphenyl]-4-carbonitrile]
EC50 (HIV-1 (IIIB)): 27 ± 25 nM
SI (IIIB) (HIV-1 (IIIB)): >1670
CC50 (in vitro): > 45000 nM

Cc1cc(-c2ccc(C#N)cc2)ccc1Oc1nc(Nc2ccc(C#N)cc2)ncc1F [A3, 4′-((2-((4-Cyanophenyl)amino)-5-fluoropyrimidin-4-yl)oxy)-3′-methyl-[1,1′-biphenyl]-4-carbonitrile]
EC50 (HIV-1 (IIIB)): 7.6 ± 2.6 nM
SI (IIIB) (HIV-1 (IIIB)): >6349
CC50 (in vitro): > 48000 nM

N#Cc1ccc(Nc2ncc(F)c(Oc3c(F)cc(-c4ccc(C#N)cc4)cc3F)n2)cc1 [A5, 4′-((2-((4-Cyanophenyl)amino)-5-fluoropyrimidin-4-yl)oxy)-3′,5′-difluoro-[1,1′-biphenyl]-4-carbonitrile]
EC50 (HIV-1 (IIIB)): 6.3 ± 3.2 nM
SI (IIIB) (HIV-1 (IIIB)): >7143
CC50 (in vitro): > 45000 nM

Cc1cc(-c2ccc(C#N)cc2)cc(C)c1Oc1nc(Nc2ccc(C#N)cc2)ncc1F [A6, 4′-((2-((4-Cyanophenyl)amino)-5-fluoropyrimidin-4-yl)oxy)-3′,5′-dimethyl-[1,1′-biphenyl]-4-carbonitrile]
EC50 (HIV-1 (IIIB)): 7.1 ± 3.2 nM
SI (IIIB) (HIV-1 (IIIB)): 30,805
CC50 (in vitro): 219000 ± 12000 nM

N#Cc1ccc(Nc2ncc(F)c(Nc3ccc(-c4ccc(C#N)cc4)cc3Cl)n2)cc1 [A8, 3′-Chloro-4′-((2-((4-cyanophenyl)amino)-5-fluoropyrimidin-4-yl)amino)-[1,1′-biphenyl]-4-carbonitrile]
EC50 (HIV-1 (IIIB)): 43 ± 23 nM
SI (IIIB) (HIV-1 (IIIB)): >1038
CC50 (in vitro): > 45000 nM

COc1cc(-c2ccc(C#N)cc2)ccc1Nc1nc(Nc2ccc(C#N)cc2)ncc1F [A10, 4′-((2-((4-Cyanophenyl)amino)-5-fluoropyrimidin-4-yl)amino)-3′-methoxy-[1,1′-biphenyl]-4-carbonitrile]
EC50 (HIV-1 (IIIB)): 23 ± 18 nM
SI (IIIB) (HIV-1 (IIIB)): >1961
CC50 (in vitro): > 46000 nM

N#Cc1ccc(Nc2ncc(F)c(Oc3ccc(-c4ccncc4)cc3F)n2)cc1 [A13, 4-((5-Fluoro-4-(2-fluoro-4-(pyridin-4-yl)phenoxy)pyrimidin-2-yl)amino)benzonitrile]
EC50 (HIV-1 (IIIB)): 9.7 ± 3.7 nM
SI (IIIB) (HIV-1 (IIIB)): >5147
CC50 (in vitro): > 50000 nM

N#Cc1ccc(Nc2ncc(F)c(Oc3ccc(-c4ccncc4)cc3Cl)n2)cc1 [A14, 4-((4-(2-Chloro-4-(pyridin-4-yl)phenoxy)-5-fluoropyrimidin-2-yl)amino)benzonitrile]
EC50 (HIV-1 (IIIB)): 12 ± 3.1 nM
SI (IIIB) (HIV-1 (IIIB)): >3846
CC50 (in vitro): > 48000 nM

Cc1cc(-c2ccncc2)ccc1Oc1nc(Nc2ccc(C#N)cc2)ncc1F [A15, 4-((5-Fluoro-4-(2-methyl-4-(pyridin-4-yl)phenoxy)pyrimidin-2-yl)amino)benzonitrile]
EC50 (HIV-1 (IIIB)): 11 ± 2.5 nM
SI (IIIB) (HIV-1 (IIIB)): >4734
CC50 (in vitro): > 50000 nM

N#Cc1ccc(Nc2ncc(F)c(Oc3c(F)cc(-c4ccncc4)cc3F)n2)cc1 [A17, 4-((4-(2,6-Difluoro-4-(pyridin-4-yl)phenoxy)-5-fluoropyrimidin-2 yl)amino)benzonitrile]
EC50 (HIV-1 (IIIB)): 11 ± 4.1 nM
SI (IIIB) (HIV-1 (IIIB)): >4396
CC50 (in vitro): > 48000 nM

Cc1cc(-c2ccncc2)cc(C)c1Oc1nc(Nc2ccc(C#N)cc2)ncc1F [A18, 4-((4-(2,6-Dimethyl-4-(pyridin-4-yl)phenoxy)-5-fluoropyrimidin-2-yl)amino)benzonitrile]
EC50 (HIV-1 (IIIB)): 56 ± 44 nM
SI (IIIB) (HIV-1 (IIIB)): >868
CC50 (in vitro): > 49000 nM

N#Cc1ccc(Nc2ncc(F)c(Nc3ccc(-c4ccncc4)cc3F)n2)cc1 [A19, 4-((5-Fluoro-4-((2-fluoro-4-(pyridin-4-yl)phenyl)amino)pyrimidin-2-yl)amino)benzonitrile]
EC50 (HIV-1 (IIIB)): 18 ± 14 nM
SI (IIIB) (HIV-1 (IIIB)): >2765
CC50 (in vitro): > 50000 nM

N#Cc1ccc(Nc2ncc(F)c(Nc3ccc(-c4ccncc4)cc3Cl)n2)cc1 [A20, 4-((4-((2-Chloro-4-(pyridin-4-yl)phenyl)amino)-5-fluoropyrimidin-2-yl)amino)benzonitrile]
EC50 (HIV-1 (IIIB)): 10 ± 1.7 nM
SI (IIIB) (HIV-1 (IIIB)): >4819
CC50 (in vitro): > 48000 nM
